Consider 1 molecule from ChEMBL document CHEMBL6103622 (J Med Chem, 2025).

The target of data set [1] is Macrophage colony-stimulating factor 1 receptor (Homo sapiens, UniProt P07333). In words: Binding affinity to recombinant CSF-1R (unknown origin) assessed as association rate constant by SPR analysis.
Data set [2] concerns BMDM. Description: Induction of repolarization of M2 like macrophage into M1 phenotype in female C57BL/6 mouse BMDM cells assessed as increase in number of M1 macrophages by measuring increase in Nos2 expression at 10 to 100 nM stimulated with mouse IL4/IL-13 for 24 hrs followed by compound addition and measured after 24 hrs by immunofluorescence analysis. Type of data set: functional, cell-based. Conditions: dose 10-100 nM.

Data set [3] relates to MC-38. In words: Induction of apoptosis in mouse MC38 cells cocultured with condition medium of M2 macrophages assessed as early apoptotic cells at 30 nM by Annexin V/PI staining based flow cytometric analysis (reference value: 3.16 %). Type of data set: functional.
Data set [4] has as its system MC-38. Description: Induction of apoptosis in mouse MC38 cells assessed as late apoptotic cells at 10 nM by Annexin V/PI staining based flow cytometric analysis (reference value: 0.85 %). Type of data set: functional.
Data set [5] deals with MC-38. Description: Antitumor activity against mouse MC38 cells allografted in C57BL/6 mouse model assessed as upregulation of Tnf mRNA expression in tumor at 10 to 20 mg/kg, ip administered once daily for 14 days by qPCR analysis. Type of data set: functional, organism-based. Particulars: dose 10-20 mg/kg, time 14.0 day.
A short description of data set [6]: Toxicity in C57BL/6 mouse model allografted with mouse MC38 cells assessed as body weight loss at 10 to 20 mg/kg, ip administered once daily for 14 days. The class given is organism-based. Particulars: in vivo, 336 h, dose 10-20 mg/kg, time 14 day.
Data set [7] relates to MC-38. Description: Antitumor activity against mouse MC38 cells allografted in C57BL/6 mouse model assessed as reduction in tumor weight at 20 mg/kg, ip administered once daily for 14 days relative to control. Type of data set: functional. Details: scale not given: the % may be the effect or the level left. Particulars: time 14 day.
A short description of data set [8]: Apparent volume of distribution in Sprague-Dawley rat at 1 mg/kg, iv. The class given is ADME, organism-based. Conditions: in vivo, read-out: Vz.
Data set [9] relates to MC-38. Description: Induction of apoptosis in mouse MC38 cells cocultured with condition medium of M2 macrophages assessed as early apoptotic cells at 100 nM by Annexin V/PI staining based flow cytometric analysis (reference value: 3.16 %). Type of data set: functional.
Data set [10] relates to BMDM. Description: Induction of repolarization of M2 like macrophage into M1 phenotype in female C57BL/6 mouse BMDM cells assessed as decrease in Arg1 mRNA expression at 10 to 100 nM stimulated with mouse IL4/IL-13 for 24 hrs followed by compound addition and measured after 24 hrs by qPCR analysis. Type of data set: functional, cell-based. Particulars: dose 10-100 nM.
In data set [11] the target is NT-3 growth factor receptor (Homo sapiens) (UniProt Q16288). Description: Inhibition of TRKC (unknown origin) at 1 uM.
Data set [12] can be described thus: Cmax in Sprague-Dawley rat at 10 mg/kg, po. Type of data set: ADME, organism-based. Conditions: in vivo.
The nature of data set [13]: Terminal half-life in Sprague-Dawley rat at 10 mg/kg, po. Conditions: in vivo, read-out: beta t1/2 (converted). The class given is ADME, organism-based.
Data set [14] concerns BMDM. Description: Induction of repolarization of M2 like macrophage into M1 phenotype in female C57BL/6 mouse BMDM cells assessed as decrease in Rental mRNA expression at 10 to 100 nM stimulated with mouse IL4/IL-13 for 24 hrs followed by compound addition and measured after 24 hrs by qPCR analysis. Type of data set: functional, cell-based. Particulars: dose 10-100 nM.
For data set [15], the system named is MC-38. In words: Antitumor activity against mouse MC38 cells allografted in C57BL/6 mouse model assessed as upregulation of Nos2 mRNA expression in tumor at 10 to 20 mg/kg, ip administered once daily for 14 days by qPCR analysis. Conditions: dose 10-20 mg/kg, time 14.0 day. Type of data set: functional, organism-based.
Data set [16] relates to BMDM. Description: Induction of repolarization of M2 like macrophage into M1 phenotype in female C57BL/6 mouse BMDM cells assessed as decrease in number of M2 macrophages by measuring reduction in CD206 expression at 10 to 100 nM stimulated with mouse IL4/IL-13 for 24 hrs followed by compound addition and measured after 24 hrs by immunofluorescence analysis. Conditions: dose 10-100 nM. The class given is functional, cell-based.

Data set [17] has as its system MC-38. In words: Induction of apoptosis in mouse MC38 cells assessed as early apoptotic cells at 30 nM by Annexin V/PI staining based flow cytometric analysis (reference value: 1.91 %). Type of data set: functional.
Data set [18] has as its system MC-38. In words: Inhibition of cell proliferation in mouse MC38 cells at 10 to 100 nM incubated for 20 hrs by CCK8 assay. Particulars: dose 10-100 nM. Type of data set: functional, cell-based.
In data set [19] the test system is MC-38. Description: Induction of apoptosis in mouse MC38 cells cocultured with condition medium of M2 macrophages assessed as late apoptotic cells at 30 nM by Annexin V/PI staining based flow cytometric analysis (reference value: 1.66 %). Type of data set: functional.
The nature of data set [20]: MRT (0 to t) in Sprague-Dawley rat at 1 mg/kg, iv. Type of data set: ADME, organism-based. Conditions: in vivo.
Data set [21] addresses T1, Macrophage colony-stimulating factor 1 receptor (Mus musculus) (UniProt P09581).
T1 sequence (whole entry): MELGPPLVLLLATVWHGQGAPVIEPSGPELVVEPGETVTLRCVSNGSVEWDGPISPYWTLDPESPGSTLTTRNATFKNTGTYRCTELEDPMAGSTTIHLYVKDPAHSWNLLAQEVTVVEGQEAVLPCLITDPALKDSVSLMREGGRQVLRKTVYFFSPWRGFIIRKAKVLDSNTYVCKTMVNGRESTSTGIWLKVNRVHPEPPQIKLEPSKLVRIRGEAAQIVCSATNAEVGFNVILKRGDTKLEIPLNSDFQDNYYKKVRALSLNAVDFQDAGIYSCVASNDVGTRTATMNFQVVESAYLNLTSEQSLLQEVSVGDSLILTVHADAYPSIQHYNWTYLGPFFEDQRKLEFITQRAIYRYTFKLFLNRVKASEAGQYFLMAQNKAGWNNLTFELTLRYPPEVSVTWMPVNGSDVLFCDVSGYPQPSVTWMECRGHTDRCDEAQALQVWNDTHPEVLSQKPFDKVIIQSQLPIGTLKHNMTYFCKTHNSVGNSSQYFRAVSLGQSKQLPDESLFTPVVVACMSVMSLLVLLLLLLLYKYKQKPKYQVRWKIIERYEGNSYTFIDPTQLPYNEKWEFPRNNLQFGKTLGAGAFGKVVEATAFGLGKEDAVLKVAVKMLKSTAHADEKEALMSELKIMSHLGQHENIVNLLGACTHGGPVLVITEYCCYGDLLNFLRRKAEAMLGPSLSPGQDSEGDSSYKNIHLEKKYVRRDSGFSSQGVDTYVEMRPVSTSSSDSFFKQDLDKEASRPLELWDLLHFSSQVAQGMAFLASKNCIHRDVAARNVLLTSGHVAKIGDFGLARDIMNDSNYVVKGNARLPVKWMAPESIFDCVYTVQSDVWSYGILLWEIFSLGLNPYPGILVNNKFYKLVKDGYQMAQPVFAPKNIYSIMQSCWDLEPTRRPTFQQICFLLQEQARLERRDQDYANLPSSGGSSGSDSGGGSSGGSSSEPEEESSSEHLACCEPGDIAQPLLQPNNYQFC
Description: Inhibition of CSF-1R signaling pathway activation in female C57BL/6 mouse BMDM cells assessed as reduction in CSF-1R phosphorylation preincubated with compounds for 4 hrs followed by M-CSF stimulation and measured after 30 mins by Western blot analysis. Particulars: dose 10-100 nM, time 4.5 hrs. The class given is cell-based.

Data set [22] relates to MC-38. In words: Induction of apoptosis in mouse MC38 cells cocultured with condition medium of M2 macrophages assessed as late apoptotic cells at 100 nM by Annexin V/PI staining based flow cytometric analysis (reference value: 1.66 %). The class given is functional.

Calls of active or inactive are those of the source. The rule behind the calls is not given here.

Sequence of Macrophage colony-stimulating factor 1 receptor (P07333 whole entry): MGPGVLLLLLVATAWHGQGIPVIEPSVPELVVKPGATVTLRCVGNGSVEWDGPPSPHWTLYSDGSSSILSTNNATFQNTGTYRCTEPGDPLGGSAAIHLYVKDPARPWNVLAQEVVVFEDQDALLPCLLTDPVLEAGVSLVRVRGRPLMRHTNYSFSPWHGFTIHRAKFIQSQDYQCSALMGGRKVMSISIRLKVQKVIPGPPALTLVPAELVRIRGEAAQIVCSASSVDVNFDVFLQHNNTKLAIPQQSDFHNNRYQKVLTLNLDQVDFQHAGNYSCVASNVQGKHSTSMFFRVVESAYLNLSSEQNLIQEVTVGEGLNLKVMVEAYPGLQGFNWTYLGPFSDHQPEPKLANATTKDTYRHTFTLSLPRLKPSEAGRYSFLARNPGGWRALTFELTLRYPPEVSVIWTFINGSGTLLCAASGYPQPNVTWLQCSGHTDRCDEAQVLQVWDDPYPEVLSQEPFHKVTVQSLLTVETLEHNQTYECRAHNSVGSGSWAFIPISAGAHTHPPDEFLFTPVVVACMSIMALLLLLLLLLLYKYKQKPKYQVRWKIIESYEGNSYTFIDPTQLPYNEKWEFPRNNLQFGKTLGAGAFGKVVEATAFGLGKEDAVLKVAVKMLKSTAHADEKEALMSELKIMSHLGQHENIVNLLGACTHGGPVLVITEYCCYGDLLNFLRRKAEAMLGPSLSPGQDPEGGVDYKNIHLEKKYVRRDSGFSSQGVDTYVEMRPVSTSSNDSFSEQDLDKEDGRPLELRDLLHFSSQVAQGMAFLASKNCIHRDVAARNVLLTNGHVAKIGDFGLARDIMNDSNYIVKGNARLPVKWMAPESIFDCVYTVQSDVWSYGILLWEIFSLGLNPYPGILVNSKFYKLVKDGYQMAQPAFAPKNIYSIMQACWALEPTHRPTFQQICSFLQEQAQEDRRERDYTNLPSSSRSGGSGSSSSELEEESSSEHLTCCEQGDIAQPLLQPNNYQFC
Sequence of NT-3 growth factor receptor (Homo sapiens) (Q16288 32-839 limits assumed): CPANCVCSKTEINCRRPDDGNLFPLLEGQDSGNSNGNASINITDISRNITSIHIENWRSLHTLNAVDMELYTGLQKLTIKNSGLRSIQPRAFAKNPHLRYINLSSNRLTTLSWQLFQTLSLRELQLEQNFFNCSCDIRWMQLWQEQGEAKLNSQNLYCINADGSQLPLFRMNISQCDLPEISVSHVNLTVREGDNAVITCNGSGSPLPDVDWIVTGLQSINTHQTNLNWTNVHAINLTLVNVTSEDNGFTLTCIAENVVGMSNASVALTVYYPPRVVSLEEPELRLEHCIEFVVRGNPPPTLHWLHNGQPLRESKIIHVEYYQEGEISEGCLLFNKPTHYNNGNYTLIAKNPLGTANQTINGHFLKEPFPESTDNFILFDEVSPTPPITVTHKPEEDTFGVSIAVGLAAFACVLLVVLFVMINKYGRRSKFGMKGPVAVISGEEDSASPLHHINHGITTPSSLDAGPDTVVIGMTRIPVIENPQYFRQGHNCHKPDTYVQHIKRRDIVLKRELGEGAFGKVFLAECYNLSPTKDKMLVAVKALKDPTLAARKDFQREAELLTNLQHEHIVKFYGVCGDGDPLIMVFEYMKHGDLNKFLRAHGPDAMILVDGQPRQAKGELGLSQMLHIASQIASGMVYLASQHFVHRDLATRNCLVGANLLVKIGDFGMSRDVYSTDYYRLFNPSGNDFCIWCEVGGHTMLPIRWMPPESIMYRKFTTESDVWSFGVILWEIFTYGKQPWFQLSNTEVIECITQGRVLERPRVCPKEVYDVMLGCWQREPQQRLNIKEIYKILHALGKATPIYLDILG

Regarding `Cc1nc(NC(=O)N[C@@H]2CCCC[C@H]2O)ccc1Oc1c[nH]c2ncc(Cl)cc12`, the Ka in [1] is 1.07 10^5/Ms. Also, the result in data set [2], in [5], in data set [10], in [14], in data set [15] and in data set [16] was Active. The Activity is reported as 13.61% in data set [3]; 0.72% in data set [4]; “Non-toxic” in data set [6]; 56% in data set [7]; 19.91% in data set [9]; 1.71% in data set [17]. The Activity is recorded as 4.88% in data set [19] and 5.67% in [22]. For the same molecule, in data set [8], the Vd was determined as 3.28 L/kg. Further, in [11], the inhibition entry was “Active”. In data set [12], this molecule registered a Cmax of 1580 ng/mL. The half-life in data set [13] is 1.86 h. Besides, the figures for the inhibition result in [18] and in data set [21] were “Minimal_effect” and “Dose-dependent-effect”, respectively. In data set [20], this molecule gave an MRT last of 1.6 h.
